# Literature values as cited in patent US20240373890A1, “SWEETENER AND FLAVORING COMPOSITIONS PREPARED BY GLYCOSYLATED MOGROSIDES OR MONK FRUIT EXTRACTS, METHOD OF MAKING AND METHOD OF USE THEREOF” (EPC NATURAL PRODUCTS CO., LTD., priority 2021, published 2024).
# Residues, ends and D or L forms follow the SMILES beside them.
# Settings: depends on the tested concentration compared with sucrose
row,Compound,Sweetness intensity compared with sucrose
1,COC(=O)[C@H](Cc1ccccc1)NC(=O)[C@@H](N)CC(=O)O [Aspartame] (H-Asp-Phe-OMe),160-200 times
2,C[C@H](CC[C@@H](O[C@@H]1O[C@H](CO[C@@H]2O[C@H](CO)[C@@H](O)[C@H](O)[C@H]2O)[C@@H](O)[C@H](O)[C@H]1O[C@@H]1O[C@H](CO)[C@@H](O)[C@H](O)[C@H]1O)C(C)(C)O)[C@H]1CC[C@@]2(C)[C@@H]3CC=C4[C@@H](CC[C@H](O[C@@H]5O[C@H](CO[C@@H]6O[C@H](CO)[C@@H](O)[C@H](O)[C@H]6O)[C@@H](O)[C@H](O)[C@H]5O)C4(C)C)[C@]3(C)[C@H](O)C[C@]12C [mogroside V],250-300 times
3,O=S(=O)([O-])NC1CCCCC1.[Na+] [sodium cyclamate],about 30 times
4,OC[C@H]1O[C@H](O[C@]2(CCl)O[C@H](CCl)[C@@H](O)[C@@H]2O)[C@H](O)[C@@H](O)[C@H]1Cl [sucralose],about 600 times
5,thaumatin,about 2000 times
